These results are taken from patent US11304926B2, “Application of transient receptor potential cation channel TRPV3 in developing drug for preventing or treating psoriasis” (CHINA PHARMACEUTICAL UNIVERSITY, priority 2019, dated 2022).

The structures appear in SMILES notation. Entries after “also recorded” stand apart in the source; their conditions may differ.

The test system of experiment [1] is mouse psoriasis model induced by 5% IMQ. Description: PASI score of mouse psoriasis model induced by imiquimod under drug intervention. Type of experiment: in vivo. As to conditions: for PASI score: n = 8, mean ± SD. An excerpt: 16 C57BL/6 mice, with half male and half female were purchased from the Experimental Animal Center of Nanjing Medical University, wherein weights of the mice ranged from 18 g to 20 g. Back hair of the mice was shaved off, and then the mice were randomly divided into 2 groups (8 mice in each group) according to male and female genders. Before experiment, the mice were placed in a quiet environment kept away from strong light for 3 days to adapt to the environment, a ratio of an illuminating time to a dark time was 1:1, a room temperature was controlled at 25° C., a humidity was 55%, and the mice could eat and drink freely. 62.5 mg of 5% (0.1 g:2 g) imiquimod ointment (Zhuhai United Laboratories Co., Ltd.) was continuously applied to back skins of the mice for 6 days to induce a psoriasis-like lesion, while the same dose of vaseline ointment was given to the control group.
The clinical symptom of the mouse psoriasis model was evaluated by a PASI scoring standard from three indicators of erythema, scale and infiltration thickening. The scores ranged from 0 point to 4 points, and a total score was obtained by adding scores of the three indicators. The PASI scoring standard was as follows: 0 point referred to no symptom; 1 point referred to a mild degree; 2 points referred to a moderate degree; 3 points referred to a severe degree; and 4 points referred to an extremely severe degree. The PASI evaluation was conducted daily before the IMQ ointment was applied.
C57BL/6 mice, with half male and half female were purchased from the Experimental Animal Center of Nanjing Medical University, wherein weights of the mice ranged from 18 g to 20 g. The C57BL/6 mice were randomly divided into 4 groups (8 mice in each group). Mouse psoriasis models were established as described in Embodiment 2 (1). […]
Back skins of the mice were photographed and recorded on the 1st, 3rd and 5th days after modeling.

The test system is the same in experiment [2]. Description: Neutrophil infiltration (Ly6G+ cells, immunofluorescence) of mouse psoriasis model. It is filed as in vivo. Particulars: 5% IMQ model.
Setting [3] is: subcutaneous injection, 5% IMQ model.

Take `O=c1cc(-c2ccc(O)cc2)oc2cc(O)c(O)c(O)c12` [Scutellarein]: the PASI score in experiment [1] (day 1, 0.1‰ scutellarein s.c. 100 μL twice a day + imiquimod) was 0.0 ± 0.0; in experiment [1] (day 1, 0.2‰ scutellarein s.c. 100 μL twice a day + imiquimod), 0.0 ± 0.0; in experiment [1] (day 2, 0.1‰ scutellarein s.c. 100 μL twice a day + imiquimod), 0.5 ± 0.6; in experiment [1] (day 2, 0.2‰ scutellarein s.c. 100 μL twice a day + imiquimod) it was 0.0 ± 0.0; in experiment [1] (day 3, 0.1‰ scutellarein s.c. 100 μL twice a day + imiquimod) it was 1.8 ± 0.9; in experiment [1] (day 3, 0.2‰ scutellarein s.c. 100 μL twice a day + imiquimod), 0.5 ± 0.6. In addition, the PASI score came out at 1.8 ± 1.0 in experiment [1] (day 4, 0.1‰ scutellarein s.c. 100 μL twice a day + imiquimod); 0.8 ± 0.9 in experiment [1] (day 4, 0.2‰ scutellarein s.c. 100 μL twice a day + imiquimod); 3.0 ± 0.8 in experiment [1] (day 5, 0.1‰ scutellarein s.c. 100 μL twice a day + imiquimod); 2.0 ± 1.2 in experiment [1] (day 5, 0.2‰ scutellarein s.c. 100 μL twice a day + imiquimod). In addition, in experiment [1] (setting [3]), the “occurrence of the lesion induced by imiquimod” value was “delay occurrence of the lesion”. Further, the “psoriasis-like lesion on the back skins of the mice (appearance)” value in experiment [1] (setting [3]) is given as “could relieve the psoriasis-like lesion; also recorded: can improve the lesion; also recorded: significantly relieve”. Moreover, the neutrophil infiltration entry in experiment [2] is “obviously reduce”.
